Laboratory results as given in US8378117B2 (priority 2005, dated 2013).
Where two headings read alike, the source gives them in different places.

What was measured:
CB1 receptor = molecular target: T1, CB1 receptor (Homo sapiens, UniProt P21554); assay: Binding assay for CB1 agonists or inverse agonists (SK-N-MC membranes, [3H]-CP-55,940); settings: for inhibition at 0.2 µM: read-out: CB1 receptor binding percent inhibition, test concentration 0.2 μM (footnote 2); for inhibition at 1 µM: read-out: CB1 receptor binding percent inhibition, test concentration 1 μM (footnote 1)
T1 construct: expressed in transfected cells
T1 sequence (P21554 whole entry): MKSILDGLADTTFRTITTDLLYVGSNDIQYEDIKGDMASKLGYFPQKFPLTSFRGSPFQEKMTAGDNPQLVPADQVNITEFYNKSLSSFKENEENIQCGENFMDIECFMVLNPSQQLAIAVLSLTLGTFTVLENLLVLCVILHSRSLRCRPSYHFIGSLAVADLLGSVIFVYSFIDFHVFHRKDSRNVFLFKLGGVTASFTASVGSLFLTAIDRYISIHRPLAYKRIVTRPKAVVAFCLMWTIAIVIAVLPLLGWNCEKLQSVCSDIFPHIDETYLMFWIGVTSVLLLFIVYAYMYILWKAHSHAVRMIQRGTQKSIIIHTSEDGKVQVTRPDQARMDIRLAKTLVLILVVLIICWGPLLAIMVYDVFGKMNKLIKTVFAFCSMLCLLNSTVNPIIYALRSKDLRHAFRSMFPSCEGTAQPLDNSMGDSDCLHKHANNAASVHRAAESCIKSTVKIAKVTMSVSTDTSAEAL
Experimental: (§1) The human CB1 and CB2 receptors were stably expressed in SK-N-MC cells transfected with pcDNA3 CB-1 (human) or pcDNA3 CB-2 (human). The cells were grown in T-180 cell culture flasks under standard cell culture conditions at 37° C. in a 5% CO2 atmosphere. The cells were harvested by trysinization and homogenized in a homogenization buffer (10 mM Tris, 0.2 mM MgCl2, 5 mM KCl, with protease inhibitors aprotinin, leupeptin, pepstatin A and bacitracin) and centrifuged (2000 g). The supernatant was then centrifuged in 2M sucrose (31,300 g) to produce a semi-purified membrane pellet. The pellet was resuspended in homogenization and stored at −80° C.
(§2) On the day of the assay, the pellet was thawed on ice and diluted in assay buffer (50 mM Tris-HCl, 5 mM MgCl2, 2.5 mM EDTA, 0.5 mg/mL fatty acid free bovine serum aldumin, pH 7.5). The diluted membrane pellet was added with buffer, either a test compound or vehicle standard and the radioligand [H]^3+-CP-55,940 (0.2 mM) to the wells of a 96-well polypropylene plate. Non-specific binding was measured in wells containing WIN 55,212 (10 uM). The plate was covered and incubated for 90 minutes at 30° C. The contents were then aspirated onto a Packard Unifilter GF/C filter bottom plate prewet with 0.5% polyethyleneimine. The wells of the polypropylene plate were rinsed and aspirated seven times with a 0.9% saline-0.5% Tween 20 solution. The Unifilter plate was dried, a scintillation cocktail was added to each well and the counts representing binding were quantitated in a TopCount scintillation counter.
(§3) For compounds tested, an IC50 binding value was obtained from percent inhibition studies in which various test concentrations were used. The binding value was calculated by linear regression.

CB2 receptor = molecular target: T2, CB2 receptor (Homo sapiens, UniProt P34972); assay: Binding assay for CB2 agonists or inverse agonists (SK-N-MC membranes, [3H]-CP-55,940)
T2 construct: expressed in transfected cells
T2 sequence (P34972 whole entry): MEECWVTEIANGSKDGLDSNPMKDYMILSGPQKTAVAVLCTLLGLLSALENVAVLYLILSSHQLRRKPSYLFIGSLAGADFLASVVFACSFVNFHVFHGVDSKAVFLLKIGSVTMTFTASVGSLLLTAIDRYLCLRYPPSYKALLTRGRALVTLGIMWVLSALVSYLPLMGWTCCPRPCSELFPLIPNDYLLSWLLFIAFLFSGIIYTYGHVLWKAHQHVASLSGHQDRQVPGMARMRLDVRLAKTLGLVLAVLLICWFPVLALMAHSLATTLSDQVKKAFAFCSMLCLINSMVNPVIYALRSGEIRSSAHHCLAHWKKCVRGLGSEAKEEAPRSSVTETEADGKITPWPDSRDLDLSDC
Experimental: as §1
as §2, with “The diluted membrane pellet was added with buffer, either a test compound or vehicle standard and the radioligand [H]^3+-CP-55,940 (0.2 mM) to the wells of a 96-well polypropylene plate. Non-specific binding was measured in wells containing WIN 55,212 (10 uM).” left out
as §3

[1] = read-out: CB2 receptor binding percent inhibition, test concentration 0.2 μM (footnote 2)
[2] = test concentration 0.2 μM (footnote 2), read-out: CB2 receptor binding percent inhibition

## O=C(N[C@@H](CO)c1ccccc1)c1nn(-c2ccc(Cl)cc2Cl)c2c1CCCC/C2=C\c1ccc(F)cc1 [Cpd 203, (8E)-1-(2,4-dichloro-phenyl)-8-(4-fluoro-benzylidene)-1,4,5,6,7,8-hexahydro-cycloheptapyrazole-3-carboxylic acid [(1R)-2-hydroxy-1-phenyl-ethyl]-amide]
CB1 receptor
  inhibition at 0.2 µM: 37%
CB2 receptor; [1]
  inhibition at 0.2 µM: 30%

## O=C(NC1CCCCC1)c1nn(C2CCCCC2)c2c1CCCCC2Cc1cccc(F)c1 (centres unmarked) [Cpd 51, 1-cyclohexyl-8-(3-fluoro-benzyl)-1,4,5,6,7,8-hexahydro-cycloheptapyrazole-3-carboxylic acid cyclohexylamide]
CB1 receptor
  inhibition at 1 µM: 36%
CB2 receptor; test concentration not stated
  CB2 receptor binding percent inhibition: 30%

## O=C(N[C@@H](CO)Cc1ccccc1)c1nn(-c2ccc(Cl)cc2Cl)c2c1CCCCC2Cc1cccc(Cl)c1 (stereo partly drawn) [Cpd 163, 8-(3-chloro-benzyl)-1-(2,4-dichloro-phenyl)-1,4,5,6,7,8-hexahydro-cycloheptapyrazole-3-carboxylic acid [(1R)-1-benzyl-2-hydroxy-ethyl]-amide]
CB1 receptor
  inhibition at 0.2 µM: 44%
CB2 receptor; [2]
  inhibition at 0.2 µM: 7%

## CC12CCC(C1)C(C)(C)[C@H]2NC(=O)c1nn(-c2ccc(Cl)cc2Cl)c2c1CCCCC2Cc1ccc(Cl)cc1 (stereo partly drawn) [Cpd 14, 8-(4-chloro-benzyl)-1-(2,4-dichloro-phenyl)-1,4,5,6,7,8-hexahydro-cycloheptapyrazole-3-carboxylic acid [(2S)-1,3,3-trimethyl-bicyclo[2.2.1]hept-2-yl]-amide]
CB1 receptor
  inhibition at 1 µM: 29%
CB2 receptor; test concentration not stated
  CB2 receptor binding percent inhibition: 7%

## O=C(NCc1ccc(C(F)(F)F)cc1)c1nn(C2CCCCC2)c2c1CCCCC2Cc1ccc(F)cc1 (centres unmarked) [Cpd 65, 1-cyclohexyl-8-(4-fluoro-benzyl)-1,4,5,6,7,8-hexahydro-cycloheptapyrazole-3-carboxylic acid 4-trifluoromethyl-benzylamide]
CB1 receptor
  inhibition at 1 µM: 29%
CB2 receptor; test concentration not stated
  CB2 receptor binding percent inhibition: 52%

## O=C(Nc1ccncc1)c1nn(-c2ccc(Cl)cc2Cl)c2c1CCCC/C2=C\c1ccc(Cl)cc1 [Cpd 153, (8E)-8-(4-chloro-benzylidene)-1-(2,4-dichloro-phenyl)-1,4,5,6,7,8-hexahydro-cycloheptapyrazole-3-carboxylic acid pyridin-4-ylamide]
CB1 receptor
  inhibition at 0.2 µM: 44%
CB2 receptor; [2]
  inhibition at 0.2 µM: 0%

## CC(C)[C@@H](CO)NC(=O)c1nn(-c2ccc(Cl)cc2Cl)c2c1CCCC[C@@H]2Cc1cccc(Cl)c1 [Cpd 158, (8R)-8-(3-chloro-benzyl)-1-(2,4-dichloro-phenyl)-1,4,5,6,7,8-hexahydro-cycloheptapyrazole-3-carboxylic acid [(1S)-1-hydroxymethyl-2-methyl-propyl]-amide]
CB1 receptor
  inhibition at 0.2 µM: 14%
CB2 receptor; [2]
  inhibition at 0.2 µM: 0%

## C[C@H](NC(=O)c1nn(-c2ccccc2Cl)c2c1CCCC/C2=C\c1ccc(Cl)cc1)c1ccccc1 [Cpd 191, (8E)-8-(4-chloro-benzylidene)-1-(2-chloro-phenyl)-1,4,5,6,7,8-hexahydro-cycloheptapyrazole-3-carboxylic acid [(1S)-1-phenyl-ethyl]-amide]
CB1 receptor
  inhibition at 0.2 µM: 47%
CB2 receptor; [1]
  inhibition at 0.2 µM: 7%

## CC12CCC(C1)C(C)(C)[C@H]2NC(=O)c1nn(Cc2ccccc2)c2c1CCCCC2c1ccccc1 (stereo partly drawn) [Cpd 47, 1-benzyl-8-phenyl-1,4,5,6,7,8-hexahydro-cycloheptapyrazole-3-carboxylic acid [(2S)-1,3,3-trimethyl-bicyclo[2.2.1]hept-2-yl]-amide]
CB1 receptor; Cannabinoid CB1 Receptor Binding IC50, calculated by linear regression from percent inhibition at various test concentrations
  IC50: 100 nM
CB1 receptor
  inhibition at 1 µM: 91%
CB2 receptor; Cannabinoid CB2 Receptor Binding IC50, calculated by linear regression from percent inhibition at various test concentrations
  IC50: 30 nM
CB2 receptor; test concentration 1 μM (footnote 1)
  CB2 receptor binding percent inhibition: 94%

## C[C@H](NC(=O)c1nn(C2CCCCC2)c2c1CCCCC2Cc1ccc(Cl)cc1)c1ccccc1 (stereo partly drawn) [Cpd 5, 8-(4-chloro-benzyl)-1-cyclohexyl-1,4,5,6,7,8-hexahydro-cycloheptapyrazole-3-carboxylic acid [(1S)-1-phenyl-ethyl]-amide]
CB1 receptor
  inhibition at 1 µM: 22%
CB2 receptor; test concentration not stated
  CB2 receptor binding percent inhibition: 34%

## CCOC(=O)[C@H]1C2C=CC(C2)[C@H]1NC(=O)c1nn(C2CCCCC2)c2c1CCCCC2Cc1ccc(F)cc1 (stereo partly drawn) [Cpd 88, (2S,3R)-3-{[1-cyclohexyl-8-(4-fluoro-benzyl)-1,4,5,6,7,8-hexahydro-cycloheptapyrazole-3-carbonyl]-amino}-bicyclo[2.2.1]hept-5-ene-2-carboxylic acid ethyl ester]
CB1 receptor
  inhibition at 1 µM: 2%
CB2 receptor; test concentration not stated
  CB2 receptor binding percent inhibition: 32%

## O=C(NC1CC1)c1nn(C2CCCCC2)c2c1CCCCC2Cc1cccc(F)c1 (centres unmarked) [Cpd 49, 1-cyclohexyl-8-(3-fluoro-benzyl)-1,4,5,6,7,8-hexahydro-cycloheptapyrazole-3-carboxylic acid cyclopropylamide]
CB1 receptor
  inhibition at 1 µM: 33%
CB2 receptor; test concentration not stated
  CB2 receptor binding percent inhibition: 9%

## O=C(NN1CCCCC1)c1nn(C2CCCCC2)c2c1CCCCC2Cc1ccc(F)cc1 (centres unmarked) [Cpd 62, 1-cyclohexyl-8-(4-fluoro-benzyl)-1,4,5,6,7,8-hexahydro-cycloheptapyrazole-3-carboxylic acid piperidin-1-ylamide]
CB1 receptor
  inhibition at 1 µM: 5%
CB2 receptor; test concentration not stated
  CB2 receptor binding percent inhibition: 5%

## COC(=O)[C@H](Cc1ccc(F)cc1)NC(=O)c1nn(C2CCCCC2)c2c1CCCCC2Cc1cccc(F)c1 (stereo partly drawn) [Cpd 73, (2S)-2-{[1-cyclohexyl-8-(3-fluoro-benzyl)-1,4,5,6,7,8-hexahydro-cycloheptapyrazole-3-carbonyl]-amino}-3-(4-fluoro-phenyl)-propionic acid methyl ester]
CB1 receptor; value shown is an average percent inhibition (footnote 5), concentration not given
  CB1 receptor binding average percent inhibition: ^(5)24%
CB2 receptor; test concentration not stated
  CB2 receptor binding percent inhibition: 8%

## C[C@@H](NC(=O)c1nn(-c2ccncc2)c2c1CCCC/C2=C\c1ccc(Cl)cc1)C1CCCCC1 [Cpd 180, (8E)-8-(4-chloro-benzylidene)-1-pyridin-4-yl-1,4,5,6,7,8-hexahydro-cycloheptapyrazole-3-carboxylic acid [(1R)-1-cyclohexyl-ethyl]-amide]
CB1 receptor
  inhibition at 0.2 µM: 40%
CB2 receptor; [2]
  inhibition at 0.2 µM: 86%

## O=C(NC1CC1)c1nn(Cc2ccc(Cl)cc2)c2c1CCCCC2Cc1ccc(Cl)cc1 (centres unmarked) [Cpd 34, 1,8-bis-(4-chloro-benzyl)-1,4,5,6,7,8-hexahydro-cycloheptapyrazole-3-carboxylic acid cyclopropylamide]
CB1 receptor
  inhibition at 1 µM: 0%
CB2 receptor; test concentration not stated
  CB2 receptor binding percent inhibition: 0%

## CCOC(=O)[C@@H]1C2CCC(C2)[C@@H]1NC(=O)c1nn(-c2ccc(Cl)cc2Cl)c2c1CCCCC2Cc1cccc(Cl)c1 (stereo partly drawn) [Cpd 109, (2R,3S)-3-{[8-(3-chloro-benzyl)-1-(2,4-dichloro-phenyl)-1,4,5,6,7,8-hexahydro-cycloheptapyrazole-3-carbonyl]-amino}-bicyclo[2.2.1]heptane-2-carboxylic acid ethyl ester]
CB1 receptor; calculated by linear regression from percent inhibition at various test concentrations, read-out: Cannabinoid CB1 Receptor Binding IC50
  IC50: 300 nM
CB1 receptor; read-out: CB1 receptor binding percent inhibition, test concentration 0.5 μM (footnote 10)
  inhibition at 0.5 µM: 60%
CB1 receptor
  inhibition at 1 µM: 72%
CB2 receptor; test concentration not stated
  CB2 receptor binding percent inhibition: 48%

## O=C(NC1CC1)c1nn(C2CCCCC2)c2c1CCCCC2Cc1ccc(F)cc1 (centres unmarked) [Cpd 56, 1-cyclohexyl-8-(4-fluoro-benzyl)-1,4,5,6,7,8-hexahydro-cycloheptapyrazole-3-carboxylic acid cyclopropylamide]
CB1 receptor
  inhibition at 1 µM: 0%
CB2 receptor; test concentration not stated
  CB2 receptor binding percent inhibition: 42%

## O=C(NC1CCC1)c1nn(Cc2ccc(Cl)cc2)c2c1CCCCC2Cc1cccc(Cl)c1 (centres unmarked) [Cpd 29, 1-(4-chloro-benzyl)-8-(3-chloro-benzyl)-1,4,5,6,7,8-hexahydro-cycloheptapyrazole-3-carboxylic acid cyclobutylamide]
CB1 receptor
  inhibition at 1 µM: 13%
CB2 receptor; test concentration not stated
  CB2 receptor binding percent inhibition: 18%

## CC12CCC(C1)C(C)(C)[C@H]2NC(=O)c1nn(C2CCCCC2)c2c1CCCCC2Cc1ccccc1Cl (stereo partly drawn) [Cpd 11, 8-(2-chloro-benzyl)-1-cyclohexyl-1,4,5,6,7,8-hexahydro-cycloheptapyrazole-3-carboxylic acid [(2S)-1,3,3-trimethyl-bicyclo[2.2.1]hept-2-yl]-amide]
CB1 receptor
  inhibition at 1 µM: 17%
CB2 receptor; test concentration not stated
  CB2 receptor binding percent inhibition: 21%
